# Assay: Amounts of β-lactam antibiotic, β-lactamase inhibitor and aminoglycoside antibiotic in solution over time (reverse-phase LC/HPLC)
# Type: physicochemical
# Description: The amounts of β-lactam antibiotics and β-lactamase inhibitor were determined using C18 reverse-phase LC and UV-VIS detector (Tianjin […] Co., Ltd., analysis method No. HM-K-03). The content of aminoglycoside antibiotics was measured using reverse-phase HPLC and evaporation-light-scattering detector (ELSD detector) (Tianjin […] Co., Ltd., analysis method No. HM-K-08). The amount of antibiotic component at each time point was expressed as a percentage with respect to the amount at the initial time. The relative amount of each antibiotic component in the composition at each time point was expressed as peak area ratio with respect to the corresponding peak area of an external standard.
compound,measurement,setting,value
CO/N=C(\C(=O)N[C@@H]1C(=O)N2C(C(=O)O)=C(CSc3nc(C)c(CC(=O)O)s3)CS[C@H]12)c1csc(N)n1 [Cefodizime sodium],amount (percentage of initial amount),"in Example 10 solution, pH 6.5, room temperature, 0 h",92.06%
same,amount (percentage of initial amount),"in Example 10 solution, pH 6.5, room temperature, 1 h",99.84%
same,amount (percentage of initial amount),"in Example 10 solution, pH 6.5, room temperature, 2 h",99.73%
same,amount (percentage of initial amount),"in Example 10 solution, pH 6.5, room temperature, 4 h",98.64%
same,amount (percentage of initial amount),"in Example 10 solution, pH 6.5, room temperature, 6 h",94.27%
same,amount (percentage of initial amount),"in Example 10 solution, pH 6.5, room temperature, 8 h",96.48%
same,amount (percentage of initial amount),"in Example 25 solution, pH 6.75, room temperature, 0 h",100.9%
same,amount (percentage of initial amount),"in Example 25 solution, pH 6.75, room temperature, 1 h",104.6%
same,amount (percentage of initial amount),"in Example 25 solution, pH 6.75, room temperature, 2 h",100.1%
same,amount (percentage of initial amount),"in Example 25 solution, pH 6.75, room temperature, 4 h",81.34%
same,amount (percentage of initial amount),"in Example 25 solution, pH 6.75, room temperature, 6 h",103.7%
same,amount (percentage of initial amount),"in Example 25 solution, pH 6.75, room temperature, 8 h",102.2%
C[C@]1(Cn2ccnn2)[C@H](C(=O)O)N2C(=O)C[C@H]2S1(=O)=O [Tazobactam sodium],amount (percentage of initial amount),"in Example 8 solution from freeze-dried powder stored 7 days at 0° C., redissolved in injectable water, 0 h",102.2%
same,amount (percentage of initial amount),"in Example 8 solution from freeze-dried powder stored 7 days at 0° C., redissolved in injectable water, 1 h",97.53%
same,amount (percentage of initial amount),"in Example 8 solution from freeze-dried powder stored 7 days at 0° C., redissolved in injectable water, 2 h",94.16%
same,amount (percentage of initial amount),"in Example 8 solution from freeze-dried powder stored 7 days at 0° C., redissolved in injectable water, 4 h",94.58%
same,amount (percentage of initial amount),"in Example 8 solution from freeze-dried powder stored 7 days at 0° C., redissolved in injectable water, 6 h",95.45%
same,amount (percentage of initial amount),"in Example 8 solution from freeze-dried powder stored 7 days at 0° C., redissolved in injectable water, 8 h",94.44%
same,amount (percentage of initial amount),"in Example 16 solution, pH 6.5, room temperature, 0 h",98.77%
same,amount (percentage of initial amount),"in Example 16 solution, pH 6.5, room temperature, 1 h",108.2%
same,amount (percentage of initial amount),"in Example 16 solution, pH 6.5, room temperature, 2 h",110.8%
same,amount (percentage of initial amount),"in Example 16 solution, pH 6.5, room temperature, 4 h",97.39%
same,amount (percentage of initial amount),"in Example 16 solution, pH 6.5, room temperature, 6 h",106.3%
same,amount (percentage of initial amount),"in Example 16 solution, pH 6.5, room temperature, 8 h",106.3%
same,amount (percentage of initial amount),"in Example 21 solution, pH 6.75, room temperature (22° C.), 0 h",93.36%
same,amount (percentage of initial amount),"in Example 21 solution, pH 6.75, room temperature (22° C.), 1 h",104.8%
same,amount (percentage of initial amount),"in Example 21 solution, pH 6.75, room temperature (22° C.), 2 h",100.0%
same,amount (percentage of initial amount),"in Example 21 solution, pH 6.75, room temperature (22° C.), 4 h",96.58%
same,amount (percentage of initial amount),"in Example 21 solution, pH 6.75, room temperature (22° C.), 6 h",106.1%
same,amount (percentage of initial amount),"in Example 21 solution, pH 6.75, room temperature (22° C.), 8 h",107.1%
CC1(C)S[C@@H]2[C@H](NC(=O)[C@H](NC(=O)N3CCN(S(C)(=O)=O)C3=O)c3ccccc3)C(=O)N2[C@H]1C(=O)O [Mezlocillin sodium],amount (percentage of initial amount),"in Example 11 solution (pH 6.0) from freeze-dried powder stored 7 days at 0° C., redissolved, 0 h",97.11%
same,amount (percentage of initial amount),"in Example 11 solution (pH 6.0) from freeze-dried powder stored 7 days at 0° C., redissolved, 1 h",90.83%
same,amount (percentage of initial amount),"in Example 11 solution (pH 6.0) from freeze-dried powder stored 7 days at 0° C., redissolved, 2 h",98.18%
same,amount (percentage of initial amount),"in Example 11 solution (pH 6.0) from freeze-dried powder stored 7 days at 0° C., redissolved, 4 h",93.69%
same,amount (percentage of initial amount),"in Example 11 solution (pH 6.0) from freeze-dried powder stored 7 days at 0° C., redissolved, 6 h",91.23%
same,amount (percentage of initial amount),"in Example 11 solution (pH 6.0) from freeze-dried powder stored 7 days at 0° C., redissolved, 8 h",94.39%
same,amount (percentage of initial amount),"in Example 17 solution, pH 6.5, room temperature, 0 h",116.6%
same,amount (percentage of initial amount),"in Example 17 solution, pH 6.5, room temperature, 1 h",94.83%
same,amount (percentage of initial amount),"in Example 17 solution, pH 6.5, room temperature, 2 h",91.86%
same,amount (percentage of initial amount),"in Example 17 solution, pH 6.5, room temperature, 4 h",91.96%
same,amount (percentage of initial amount),"in Example 17 solution, pH 6.5, room temperature, 6 h",91.52%
same,amount (percentage of initial amount),"in Example 17 solution, pH 6.5, room temperature, 8 h",98.56%
same,amount (percentage of initial amount),"in Example 18 solution (2.5% fructose), pH 6.5, room temperature, 0 h",96.48%
same,amount (percentage of initial amount),"in Example 18 solution (2.5% fructose), pH 6.5, room temperature, 1 h",95.90%
same,amount (percentage of initial amount),"in Example 18 solution (2.5% fructose), pH 6.5, room temperature, 2 h",71.70%
same,amount (percentage of initial amount),"in Example 18 solution (2.5% fructose), pH 6.5, room temperature, 4 h",91.78%
same,amount (percentage of initial amount),"in Example 18 solution (2.5% fructose), pH 6.5, room temperature, 6 h",93.08%
same,amount (percentage of initial amount),"in Example 18 solution (2.5% fructose), pH 6.5, room temperature, 8 h",97.69%
CC1(C)S[C@@H]2[C@H](NC(=O)[C@H](NC(=O)N3CCNC3=O)c3ccccc3)C(=O)N2[C@H]1C(=O)O [Azlocillin sodium],amount (percentage of initial amount),"in Example 22 solution (2.5% fructose), pH 6.0, room temperature, 0 h",92.40%
same,amount (percentage of initial amount),"in Example 22 solution (2.5% fructose), pH 6.0, room temperature, 1 h",98.91%
same,amount (percentage of initial amount),"in Example 22 solution (2.5% fructose), pH 6.0, room temperature, 2 h",104.0%
same,amount (percentage of initial amount),"in Example 22 solution (2.5% fructose), pH 6.0, room temperature, 4 h",98.91%
same,amount (percentage of initial amount),"in Example 22 solution (2.5% fructose), pH 6.0, room temperature, 6 h",99.03%
same,amount (percentage of initial amount),"in Example 22 solution (2.5% fructose), pH 6.0, room temperature, 8 h",85.02%

# — US20090155387A1, “STABLE PHARMACEUTICAL COMPOSITION COMPRISING BETA-LACTAM ANTIBIOTIC AND ION-CHELATING AGENT” (priority 2006, published 2009)
